Test results: patent US20050209157A1, “Short bioactive peptides and methods for their use” (priority 2001, published 2005)
In brackets after ≈: the same amount, converted by molar mass. No end group written: not given here.

What was measured:
[1] = tested on: Pseudomonas aeruginosa ATCC 9027; experiment: Antimicrobial assay I, MIC by OD measurement; type: cell-based; conditions: 37° C. for 24 hours, absorbance 620 nm
Description: (§1) The data for the following antimicrobial assay of the peptides have been obtained by making OD measurements in in vitro cell culture experiments with and without added peptide. The protocol used is as follows.
(§2) Cell lines included Staphylococcus aureus ATCC 6538 or 25923, Pseudomonas aeruginosa ATCC 9027 or 27853. Medium used were Antibiotic Medium 3 (Difco), Antibiotic Medium 2 (Difco), and 0.85% saline. Controls used were physiological saline, and gentamycin at 50, 25, 10, 5, 1, and 0.1 ppm.
(§3) Absorbance was read at 620 nm after shaking to resuspend cells.
(§4) Staph6538 is Staphylococcus aureus ATCC accession number 6538; paerug9027 is Pseudomonas aeruginosa ATCC accession number 9027, yeast is Saccharomyces cerevisiae.

[2] = tested on: Staphylococcus aureus ATCC 6538; experiment: Antimicrobial assay I, MIC by OD measurement; type: cell-based; conditions: 37° C. for 24 hours, absorbance 620 nm
Description: as §1, §2, §3, §4

[3] = tested on: yeast (Saccharomyces cerevisiae); experiment: Antimicrobial assay I, yeast assay in RPMI 1640; type: cell-based; conditions: RPMI 1640 media
Protocol: as §1, §3
The yeast assay was performed in RPMI 1640 media (pH 7.0 at 25° C.).
as §4

BMKC = experiment: Anti-cancer assay, MTT, LD50; type: cell-based; conditions: BMKC cloned melanoma line, 24 hours with peptide
Description: (§5) Numbers are LD50 values (μg/mL).

H1299 = experiment: Anti-cancer assay, MTT, LD50; type: cell-based; conditions: 24 hours with peptide, lung large cell carcinoma
Description: as §5

HeLaS3 = experiment: Anti-cancer assay, MTT, LD50; type: cell-based; conditions: 24 hours with peptide, cervical carcinoma
Description: as §5

MCF7 = experiment: Anti-cancer assay, MTT, LD50; type: cell-based; conditions: MCF7 breast adenocarcinoma line, MTT, 24 hours with peptide
Description: as §5

PC3 = experiment: Anti-cancer assay, MTT, LD50; type: cell-based; conditions: 24 hours with peptide, prostate adenocarcinoma
Description: as §5

SW480 = experiment: Anti-cancer assay, MTT, LD50; type: cell-based; conditions: SW480 colon adenocarcinoma line, 24 hours with peptide
Description: as §5

in vitro [4] = type: cell-based, human; conditions: human, human red blood cells, pH 7, hemolytic assay, concentration at 50% hemolysis, 1 hour at 37° C.; read-out: LD50
Protocol: This hemolytic assay is based upon that presented in Journal of Peptide Research 53: 82-90 (1999). […] All procedures were performed according to safety protocols pertaining to the handling and disposal of human body fluids.
Red blood cells (RBCs) were washed three times with PBS (35 mM phosphate buffer 0.15 M NaCl, pH 7.0). RBCs suspended in PBS (0.4% (v/v); about 10 ml per 15 peptides) were prepared. Suspensions (100 μl) were aliquoted to each sample and control tube. Serially diluted peptide solutions (100 μl) were pipetted into the sample tubes. Negative control tubes contained 100 μl PBS; positive control tubes contained 100 μl 1% Triton-X100 detergent. All tubes were incubated for 1 hour at 37° C. The tubes were removed from the incubator and centrifuged at 1000 g for 5 minutes. Supernatant (100 μl) was pipetted to a 96-well polyvinyl chloride plate. The absorbance at 414 nm (A414) was measured, and used to calculate the percent hemolysis according to the following formula. [formula]

WI38 = conditions: MTT, 24 hours with peptide; normal fibroblast line
in vitro [5] = conditions: human, WI38 normal lung fibroblast cells, LD50 WI38, WI38 normal lung fibroblast line, MTT, 24 hours with peptide
P. aeruginosa H374 = type: cell-based, Pseudomonas aeruginosa
Protocol: The synergistic effects of the inventive peptides with either chloramphenicol or nalidixic acid against efflux mutants of Pseudomonas aeruginosa were investigated. The MIC values were determined for either nalidixic acid or chloramphenicol alone as baselines. Peptides were added at their ¼ MIC concentration, and the concentration of either nalidixic acid or chloramphenicol to arrive at the MIC was determined. […] The fractional inhibitory concentration (FIC) index was used to determine synergy between peptides and antibiotics. Two-fold serial dilutions of antibiotic were tested in the presence of a constant amount of peptide, equal to one quarter of peptide MIC. The FIC index was determined as follows: FIC=0.25+MICantibiotic in combination/MICantibiotic alone. An FIC index of 0.5 or less is considered as synergy.

Molecule | paerug9027 (MIC) [1] | staph6538 (MIC) [2] | yeast (MIC or MFC) [3] | LD50 BMKC (BMKC) | H1299 LD50 (H1299) | HeLaS3 LD50 (HeLaS3) | LD50 MCF7 (MCF7) | PC3 LD50 (PC3) | LD50 SW480 (SW480) | HC50 at 1 h (in vitro [4]) | WI38 LD50 (WI38) | CC50 at 24 h (in vitro [5]) | MIC Cm-comb. (P. aeruginosa H374; MIC of chloramphenicol with peptide at ¼ MIC) | FIC Index (P. aeruginosa H374; chloramphenicol + peptide at ¼ MIC, 0.5 or less = synergy)
WALAL-NH2 [P184, WALAL-NH2] | 100 µg/mL | 25 µg/mL | 100 µg/mL | 600 µg/mL | 370 µg/mL | 302 µg/mL | 260 µg/mL | 570 µg/mL | 440 µg/mL | 850 µg/mL | 800 µg/mL | 800 µg/mL |  | 
FALALKALKKAL-NH2 [P144, FALALKALKKAL-NH2] | 50 µg/mL | 5 µg/mL | 50 µg/mL | 250 µg/mL | 225 µg/mL | 275 µg/mL | 150 µg/mL | 350 µg/mL | 285 µg/mL | 600 µg/mL | 750 µg/mL | 750 µg/mL |  | 
FAKLLAKLAKKGL-NH2 [P152] | 50 µg/mL | 100 µg/mL | 100 µg/mL | > (> indicates greater than 1000) | 410 µg/mL | > (> indicates greater than 1000) | 430 µg/mL | > (> indicates greater than 1000) | 740 µg/mL | 880 µg/mL | 620 µg/mL | 620 µg/mL |  | 
KWKLAKKALALL-NH2 [P142] | 50 µg/mL | 100 µg/mL | 100 µg/mL | 38 µg/mL | 115 µg/mL | 55 µg/mL | 44 µg/mL | 60 µg/mL | 38 µg/mL | 900 µg/mL | 73 µg/mL | 73 µg/mL |  | 
FAKLLAKLAKAKL-NH2 [P65] | 50 µg/mL | 15 µg/mL | 200 µg/mL | 250 µg/mL | 450 µg/mL | 210 µg/mL | 475 µg/mL | 470 µg/mL | 345 µg/mL | 950 µg/mL | 320 µg/mL | 320 µg/mL |  | 
FALLKALKKAL-NH2 [P171, FALLKALKKAL-NH2] | 50 µg/mL | 25 µg/mL | 100 µg/mL | 600 µg/mL | 540 µg/mL | 820 µg/mL | 305 µg/mL | 600 µg/mL | 770 µg/mL | 550 µg/mL | 615 µg/mL | 615 µg/mL |  | 
FAKLLAKFLKKAL-NH2 [P113] | 200 µg/mL | 10 µg/mL | 200 µg/mL | 115 µg/mL | 50 µg/mL | 190 µg/mL | 150 µg/mL | 240 µg/mL | 180 µg/mL | 1000 µg/mL | 170 µg/mL | 170 µg/mL | 16 µg/mL | 1.25
KWKLFKKALKKLKKALKKAL-NH2 [P104] | 10 µg/mL | 10 µg/mL | 200 µg/mL | 100 µg/mL | 52 µg/mL | 130 µg/mL | 11 µg/mL | 18 µg/mL | 54 µg/mL | 70 µg/mL | 24 µg/mL | 24 µg/mL |  | 
FALALKLAKKAL-NH2 [P167, FALALKLAKKAL-NH2] | 25 µg/mL | 10 µg/mL | 100 µg/mL | 240 µg/mL | 300 µg/mL | 325 µg/mL | 230 µg/mL | 320 µg/mL | 360 µg/mL | 200 µg/mL | 260 µg/mL | 260 µg/mL |  | 
CC(C)C[C@H](NC(=O)[C@H](C)NC(=O)[C@H](CCCCN)NC(=O)[C@H](CC(C)C)NC(=O)[C@H](C)NC(=O)[C@H](CC(C)C)NC(=O)[C@H](C)NC(=O)[C@H](CCCCN)NC(=O)[C@H](CC(C)C)NC(=O)[C@H](C)NC(=O)[C@H](CC(C)C)NC(=O)[C@H](C)NC(=O)[C@H](CC(C)C)NC(=O)[C@H](CCCCN)NC(=O)[C@H](C)NC(=O)[C@H](CC(C)C)NC(=O)[C@H](CCCCN)NC(=O)[C@H](CCCCN)NC(=O)[C@H](C)NC(=O)[C@H](CC(C)C)NC(=O)[C@H](CCCCN)NC(=O)[C@H](CCCCN)NC(=O)[C@H](CC(C)C)NC(=O)[C@H](CCCCN)NC(=O)[C@H](CCCCN)NC(=O)[C@H](C)NC(=O)[C@H](CC(C)C)NC(=O)[C@H](CCCCN)NC(=O)[C@H](CCCCN)NC(=O)[C@H](C)NC(=O)[C@@H](N)Cc1ccccc1)C(N)=O [P98, reference compound] | > (> indicates greater than 200 μg/mL) | > (> indicates greater than 200 μg/mL) | > (> indicates greater than 200 μg/mL) | 94 µg/mL | 53 µg/mL | 175 µg/mL | 96 µg/mL | 52 µg/mL | 125 µg/mL | 60 µg/mL | 47 µg/mL | 47 µg/mL (≈ 14 µM) |  | 
FAKLLAKLAK-NH2 [P123] | 200 µg/mL | 50 µg/mL | 100 µg/mL | 635 µg/mL | > (> indicates greater than 1000) | 940 µg/mL | 615 µg/mL | > (> indicates greater than 1000) | > (> indicates greater than 1000) | 1000 µg/mL | 600 µg/mL | 600 µg/mL |  | 
FAKLWAKLAFGKGIGKVGKKLL-NH2 [P135] | 10 µg/mL | 15 µg/mL | 50 µg/mL | 155 µg/mL | 115 µg/mL | 215 µg/mL | 54 µg/mL | 310 µg/mL | 80 µg/mL | 900 µg/mL | 110 µg/mL | 110 µg/mL |  | 
FKRLAKIKVLRLAKIKR-NH2 [P147] | 5 µg/mL | 5 µg/mL | 200 µg/mL | 110 µg/mL | 93 µg/mL | > (> indicates greater than 1000) | 106 µg/mL | 340 µg/mL | 185 µg/mL | 300 µg/mL | 83 µg/mL | 83 µg/mL |  | 
